Experiment [1] has as its target T1, isolated PIN domain of hDIS3 (Homo sapiens, UniProt Q9Y2L1).
T1 construct: made in house
T1 sequence (Q9Y2L1 1-217): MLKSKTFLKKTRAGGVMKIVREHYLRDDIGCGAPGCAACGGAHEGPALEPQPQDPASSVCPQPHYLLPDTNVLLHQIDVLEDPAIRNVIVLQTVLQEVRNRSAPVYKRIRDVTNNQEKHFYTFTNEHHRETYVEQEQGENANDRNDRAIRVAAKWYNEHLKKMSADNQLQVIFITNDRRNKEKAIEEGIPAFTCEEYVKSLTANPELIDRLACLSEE
In words: hDIS3 PIN domain endonucleolytic activity assay (RNA substrate digestion, denaturing PAGE, fluorimaging). Particulars: 80 μM concentration; 5′ fluoresceine-labeled ss17-(A)34 substrate; 1 mM manganese. Type of experiment: biochemical. As for the experimental part: FIGS. 11A-B. 2-hydroxy-(4H)-isoquinoline-1,3-dione (AClLAHYL) inhibits the endonucleolytic activity of isolated PIN domain of hDIS3. A) SDS-PAGE analysis of the recombinant hDIS3 PIN domain; B) Activity assay. 5′ fluoresceine-labeled ss17-(A)34 substrate was incubated in a buffer containing 1 mM manganese with recombinant hDIS3 PIN domain in the presence or absence of 2-hydroxy-(4H)-isoquinoline-1,3-dione. A control reaction was also performed, which contained the inhibitor but lacked any added protein. Reactions were terminated at the indicated time points, followed by denaturing PAGE and fluorimaging.
In vitro enzymatic assays of hDIS3 exoribonucleolytic activity were performed in 10 mM Tris-HCl, pH 8.0; 75 mM NaCl; 1 mM 2-mercaptoethanol, 100 μM MgCl2. Protein concentration was 0.1 μM, while substrate concentration was 0.2 μM or 2 μM for duplex and unstructured RNA molecules, respectively. For gel-based analyses, reactions were performed at 37° C. for the indicated times and then terminated by formamide loading dye Reaction products were resolved in denaturing 20% polyacrylamide, 8 M urea, 1xTBE gels. In the case of TLC-based experiment, samples were collected by mixing aliquots of the reaction mixtures with 1 μl of 0.5 M EDTA and subsequently analysed by running them on PEI-cellulose plates (Schleicher & Schuell) in 0.5 M LiCl/1M formic acid, using non-radioactive UMP as a marker. […]

The subject of experiment [2] is yeast harboring G833R mutation (dis3-G833R). In words: Yeast growth assay, serial dilutions spotted on YPD plates. Type of experiment: cell-based, S. cerevisiae. Particulars: 1 mM in YPD plates, 30° C., 60 hours. As for the experimental part: (§1) FIG. 12. […] Serial dilutions of indicated yeast strains were spotted on YPD plates and YPD plates with 2-hydroxy-(4H)-isoquinoline-1,3-dione (at 1 mM concentration) and incubated at 30° C. for 60 hours.
(§2) Yeast strains described above were grown in complete YPD medium at 30° C. overnight until OD600 reached 0.2 before spotting serial dilutions onto YPD plates. Cell growth was analyzed after 60 h of incubation at 25° C., 30° C. or 37° C. Analysis of viability for strains harboring mutations in both PIN and RNB domains of Dis3 was carried out by sporulation of ADZY713 and ADZY716 diploid strains, followed by tetrad dissection.
(§3) Yeast strains harboring G833R or R847K mutations, obtained in Example II were used for growth assays. Serial dilutions of indicated yeast strains were spotted on YPD plates and YPD plates with 2-hydroxy-(4H)-isoquinoline-1,3-dione (at 1 mM concentration) and incubated at 30° C. for 60 hours.

The test system of experiment [3] is yeast harboring R847K mutation (dis3-R847K). The experiment is described as above. Particulars: 1 mM in YPD plates, 30° C., 60 hours. Type of experiment: cell-based, S. cerevisiae. As for the experimental part:
as §1, §2, §3

For the compound `O=C1Cc2ccccc2C(=O)N1O` [2-hydroxy-(4H)-isoquinoline-1,3-dione], the “inhibition of the endonucleolytic activity of human DIS3 PIN domain” value in experiment [1] was “efficiently inhibited”. In addition, in experiment [2], the “growth inhibition of yeast harboring G833R mutation” value is listed as “complete growth inhibition”. The “growth inhibition of yeast harboring R847K mutation” value in experiment [3] is listed as “complete growth inhibition”.

Values taken from patent publication US9611514B2, “Method for selection of hDIS3 PIN domain inhibitors and use of hDIS3 PIN domain inhibitors for cancer treatment” (INSTYTUT BIOCHEMII I BIOFIZYKI POLSKIEJ AKADEMII NAUK, priority 2013, dated 2017).
